Laboratory results taken from US9272990B2, “Lysophosphatidic acid receptor antagonists and their use in the treatment fibrosis” (AMIRA PHARMACEUTICALS, INC., priority 2010, dated 2016).

What was measured:
Human LPA1 = target: T1, Human LPA1 (Homo sapiens, UniProt Q92633); test: LPA1 calcium flux assay; assay type: cell-based; conditions: CHO cells expressing human LPA1, stimulated with 10 nM LPA; read-out: LPA1 Ca^2+ flux
T1 construct: the full-length cDNA for human LPA1 was obtained by PCR of the reverse transcription reaction; expressed in transfected cells
Method: A 1.1 kb cDNA encoding the human LPA1 receptor was cloned from human lung. Human lung RNA (Clontech Laboratories, Inc. USA) was reverse transcribed using the RETROSCRIPT® kit (Ambion, Inc.) and the full-length cDNA for human LPA1 was obtained by PCR of the reverse transcription reaction. The nucleotide sequence of the cloned human LPA1 was determined by sequencing and confirmed to be identical to the published human LPA1 sequence (An et al., Biochem. Biophys. Res. Commun. 231:619 (1997). The cDNA was cloned into the pcDNA5/FRT expression plasmid and transfected in CHO cells using Lipofectamine 2000 (Invitrogen Corp., USA). Clones stably expressing human LPA1 were selected using hygromycin and identified as cells that show Ca-influx in response to LPA.
Human LPA1 or LPA3 expressing CHO cells are seeded at 20,000-45,000 cells per well in a 96-well poly-D-lysine coated plate one or two days before the assay. Prior to the assay, the cells are washed once with PBS and then cultured in serum-free media overnight. On the day of the assay, a calcium indicator dye (Calcium 4, Molecular Devices) in assay buffer (HBSS with Ca^2+ and Mg^2+ and containing 20 mM Hepes and 0.3% fatty-acid free human serum albumin) is added to each well and incubation continued for 1 hour at 37° C. 10 μl of test compounds in 2.5% DMSO are added to the cells and incubation continued at room temperature for 30 minutes. Cells are the stimulated by the addition of 10 nM LPA and intracellular Ca^2+ measured using the FLEXSTATION® 3 (Molecular Devices). IC50s are determined using Graphpad prism analysis of drug titration curves.

[1] = system: mouse bleomycin lung fibrosis model; test: Bleomycin-induced lung fibrosis model in mice; assay type: in vivo
Text: Female C57Bl/6 mice (Harlan, 25-30 g) are housed 4 per cage, given free access to food and water and allowed to acclimate for at least 7 days prior to test initiation. After the habituation phase, mice are lightly anesthetized with isoflurane (5% in 100% O2) and administered with bleomycin sulfate (0.01-5 U/kg, Henry Schein) via intratracheal instillation (Cuzzocrea, S et al., Am. J. Physiol. Lung Cell Mol. Physiol., 292(5):L1095-104 (May 2007) (Epub Jan. 12, 2007). Mice are returned to their cages and monitored daily for the duration of the experiment. Test compound or vehicle is delivered po, ip or sc daily. The route and frequency of dosing is based on previously determined pharmacokinetic properties. All animals are sacrificed using inhaled isoflurane 3, 7, 14, 21 or 28 days after bleomycin instillation. Following sacrifice, mice are intubated with a 20 gauge angiocatheter attached to a 1 ml syringe. Lungs are lavaged with saline to obtain bronchoalveolar lavage fluid (BALF) and then removed and fixed in 10% neutral buffered formalin for subsequent histopathological analysis. BALF is centrifuged for 10 min at 800×g to pellet the cells and the cell supernatant removed and frozen at −80° C. for subsequent protein analysis using the DC protein assay kit (Biorad, Hercules, Calif.) and soluble collagen analysis using Sircol (Biocolor Ltd, UK). BALF is analyzed for concentrations of inflammatory, pro-fibrotic and tissue injury biomarkers including transforming growth factor β1, hyaluronic acid, tissue inhibitor of metalloproteinase-1, matrix matelloproteinase-7, connective tissue growth factor and lactate dehydrogenase activity, using commercially available ELISA. The cell pellet is re-suspended in PBS. Total cell counts are then obtained using a HEMAVET® hematology system (Drew Scientific, Wayne, Pa.) and differential cells counts are determined using Shandon cytospin (Thermo Scientific, Waltham, Mass.). Lung tissue is stained using hematoxylin and eosin (H&E) and trichrome and lung fibrosis is determined by semiquantitative histopathological scoring (Ashcroft T. et al., J. Clin. Path., 41(4):467-470 (1988)) using light microscopy (10× magnification) and quantitative, computer-assisted densitometry of collagen in lung tissue sections using light microscopy. The data are plotted using Graphpad prism and statistical differences between groups determined

nerve-injured mice = conditions: pretreatment; cited from earlier work
[2] = system: human foetal lung fibroblasts; conditions: cited from earlier work
UUO mice = conditions: compared with LPA1 (−/−) mice; cited from earlier work
[3] = system: mouse epithelial renal cell line, MCT; conditions: co-treatment with LPA, MCT cells; cited from earlier work
[4] = system: pancreatic cancer cell lines; conditions: cited from earlier work
[5] = system: highly peritoneal metastatic pancreatic cancer cell line; conditions: cited from earlier work
bone metastasis = conditions: in vivo; cited from earlier work
LPA3 receptor = target: T2, LPA3 receptor (Mus musculus, UniProt Q9EQ31); conditions: in the presence of the agonist; cited from earlier work
T2 construct: host or cells: mouse kidney in vivo
T2 sequence (Q9EQ31 1-354): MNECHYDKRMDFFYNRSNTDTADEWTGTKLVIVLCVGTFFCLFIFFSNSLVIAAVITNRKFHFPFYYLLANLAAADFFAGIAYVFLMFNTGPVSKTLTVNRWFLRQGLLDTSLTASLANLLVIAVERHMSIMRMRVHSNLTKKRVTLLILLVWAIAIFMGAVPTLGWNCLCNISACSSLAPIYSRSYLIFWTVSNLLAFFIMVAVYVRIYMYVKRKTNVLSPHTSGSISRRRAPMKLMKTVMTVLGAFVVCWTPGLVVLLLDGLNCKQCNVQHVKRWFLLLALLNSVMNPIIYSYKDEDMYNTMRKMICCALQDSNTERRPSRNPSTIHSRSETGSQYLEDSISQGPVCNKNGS

[6] = multiple timepoints following intratracheal bleomycin instillation

T1 sequence (Q92633 whole entry): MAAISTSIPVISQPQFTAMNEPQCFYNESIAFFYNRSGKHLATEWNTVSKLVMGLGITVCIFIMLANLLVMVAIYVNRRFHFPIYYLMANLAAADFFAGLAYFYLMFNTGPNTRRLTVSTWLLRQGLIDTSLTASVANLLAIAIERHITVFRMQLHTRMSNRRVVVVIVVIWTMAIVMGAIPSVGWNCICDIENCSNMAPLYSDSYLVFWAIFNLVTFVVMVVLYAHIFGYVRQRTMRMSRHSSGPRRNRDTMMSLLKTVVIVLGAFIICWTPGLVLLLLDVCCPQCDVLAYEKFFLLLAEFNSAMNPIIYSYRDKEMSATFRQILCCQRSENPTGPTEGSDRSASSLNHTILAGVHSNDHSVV

In the case of CC(OC(=O)Nc1ccncc1-c1ccc(-c2ccc(C3(C(=O)O)CC3)cc2)cc1)c1ccccc1Cl (centres unmarked) [Compound 1-1, 1-(4′-{4-[1-(2-chloro-phenyl)-ethoxycarbonylamino]-pyridin-3-yl}-biphenyl-4-yl)-cyclopropanecarboxylic acid], the IC50 (Human LPA1) is reported as under 300 nM, the “BALF MMP-7” value ([1]; acute setting (3 day)) is reported as “reduced” and the “BALF TGFβ1” value ([1]; acute setting (3 day)) is reported as “reduced”. For the same molecule, the BALF collagen ([1]; acute setting (3 day)) was “reduced”, the BALF hyaluronan ([1]; acute setting (3 day)) was “reduced” and the “BALF inflammatory cell influx” value ([1]; acute setting (3 day)) was “reduced”. For the same molecule, the BALF protein ([1]; acute setting (3 day)) was “reduced”, the fibrosis [1, 6] was “reduced” and the inflammation [1, 6] was “reduced”. For the same molecule, the lung injury [1, 6] was “reduced” and the vascular leakage [1, 6] was “reduced”.

In the case of C[C@@H](N)[C@H]1CC[C@H](C(=O)Nc2ccncc2)CC1 [Compound Y-27632], the allodynia and hyperalgesia (nerve-injured mice) is given as “completely abolished”.

For Cc1noc(-c2ccc(CSCCC(=O)O)cc2)c1NC(=O)OC(C)c1ccccc1Cl (centres unmarked) [Ki16425], the “chemotaxis of human foetal lung fibroblasts induced by BAL from IPF patients” value [2] is given as “blocked”, the “increased fibroblast chemotactic activity in bronchoalveolar lavage samples of human subjects with IPF” value [2] is given as “inhibited” and the “development of renal fibrosis” value (UUO mice) is given as “closely resembled the LPA1 (−/−) mice”. For the same molecule, the “LPA-induced expression of the profibrotic cytokine CTGF” value [3] was “almost completely suppressed”, the “in vitro migration in response to LPA and peritoneal fluid (ascites) from pancreatic cancer patients” value [4] was “effectively blocked” and the “LPA-induced and ascites-induced invasion activity” value [5] was “blocked”. The metastasis to bone (bone metastasis) was “inhibit metastasis to bone”.

In the case of CCCCCCCC/C=C\CCCCCCCC(=O)OC[C@@H](COP(O)(O)=S)OC [OMPT], the “reduction of severity of injury by blockade of the LPA3 receptor” value (LPA3 receptor) is given as “reversed”.
